For 1 compound, Kd results are on record in publication PMC12823440, “Inhibitors supercharge kinase turnover through native proteolytic circuits” (Nature, 2025).

Each structure is given as a SMILES string.

For orientation: Kd means a measure of binding affinity in units of concentration. A low value points to a tighter complex.

Assay in all cases: biochemical
In assay [1] the target is ABL1 (Homo sapiens, UniProt P00519).
Assay [2] has as its target ABL2 (Homo sapiens, UniProt P42684).
For assay [3], the target named is BTK (Homo sapiens, UniProt Q06187).
Chain of BTK (Q06187 whole entry): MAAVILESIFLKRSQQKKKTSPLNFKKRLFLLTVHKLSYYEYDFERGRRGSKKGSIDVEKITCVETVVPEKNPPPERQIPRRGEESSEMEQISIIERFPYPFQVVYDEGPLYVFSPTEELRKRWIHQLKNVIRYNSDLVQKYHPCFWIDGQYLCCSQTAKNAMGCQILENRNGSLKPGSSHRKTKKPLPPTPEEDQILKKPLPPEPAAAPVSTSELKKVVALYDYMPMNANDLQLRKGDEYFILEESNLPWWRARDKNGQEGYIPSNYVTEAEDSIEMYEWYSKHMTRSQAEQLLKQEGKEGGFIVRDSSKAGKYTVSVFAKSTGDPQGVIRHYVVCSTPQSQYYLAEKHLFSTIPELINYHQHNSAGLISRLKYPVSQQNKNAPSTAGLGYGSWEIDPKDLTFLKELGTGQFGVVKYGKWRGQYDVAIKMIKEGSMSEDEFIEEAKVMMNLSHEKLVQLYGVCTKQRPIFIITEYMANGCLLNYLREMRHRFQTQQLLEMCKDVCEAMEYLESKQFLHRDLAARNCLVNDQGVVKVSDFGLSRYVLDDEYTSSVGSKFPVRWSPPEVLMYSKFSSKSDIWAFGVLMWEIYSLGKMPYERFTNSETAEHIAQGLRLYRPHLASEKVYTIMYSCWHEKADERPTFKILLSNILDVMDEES
The target in assay [4] is T1, MAP4K3 (Homo sapiens, UniProt Q8IVH8).
T1 sequence (Q8IVH8 1-894): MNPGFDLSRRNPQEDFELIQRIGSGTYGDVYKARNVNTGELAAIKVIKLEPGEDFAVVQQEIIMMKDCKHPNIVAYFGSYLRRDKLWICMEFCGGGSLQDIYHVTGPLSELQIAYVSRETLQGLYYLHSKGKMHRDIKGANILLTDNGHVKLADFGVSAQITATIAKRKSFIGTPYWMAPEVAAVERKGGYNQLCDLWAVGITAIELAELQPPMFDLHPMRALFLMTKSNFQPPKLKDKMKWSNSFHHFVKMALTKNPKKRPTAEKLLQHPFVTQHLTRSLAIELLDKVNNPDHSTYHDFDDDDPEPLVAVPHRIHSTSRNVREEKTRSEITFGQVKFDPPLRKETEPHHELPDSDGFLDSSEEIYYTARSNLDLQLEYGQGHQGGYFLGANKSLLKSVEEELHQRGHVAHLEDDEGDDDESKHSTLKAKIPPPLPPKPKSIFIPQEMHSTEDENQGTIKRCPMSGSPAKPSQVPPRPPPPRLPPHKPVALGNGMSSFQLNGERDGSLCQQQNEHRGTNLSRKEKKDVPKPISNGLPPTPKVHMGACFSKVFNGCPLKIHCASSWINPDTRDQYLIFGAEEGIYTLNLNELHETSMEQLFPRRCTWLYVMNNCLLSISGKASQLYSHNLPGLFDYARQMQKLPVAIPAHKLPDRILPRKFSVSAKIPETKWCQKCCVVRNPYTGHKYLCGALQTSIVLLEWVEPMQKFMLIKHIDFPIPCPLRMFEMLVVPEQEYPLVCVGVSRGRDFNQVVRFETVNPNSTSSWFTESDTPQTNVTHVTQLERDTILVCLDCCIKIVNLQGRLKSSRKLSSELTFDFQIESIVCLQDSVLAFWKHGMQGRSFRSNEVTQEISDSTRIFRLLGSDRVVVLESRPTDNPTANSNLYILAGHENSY

Chain of ABL1 (P00519 whole entry): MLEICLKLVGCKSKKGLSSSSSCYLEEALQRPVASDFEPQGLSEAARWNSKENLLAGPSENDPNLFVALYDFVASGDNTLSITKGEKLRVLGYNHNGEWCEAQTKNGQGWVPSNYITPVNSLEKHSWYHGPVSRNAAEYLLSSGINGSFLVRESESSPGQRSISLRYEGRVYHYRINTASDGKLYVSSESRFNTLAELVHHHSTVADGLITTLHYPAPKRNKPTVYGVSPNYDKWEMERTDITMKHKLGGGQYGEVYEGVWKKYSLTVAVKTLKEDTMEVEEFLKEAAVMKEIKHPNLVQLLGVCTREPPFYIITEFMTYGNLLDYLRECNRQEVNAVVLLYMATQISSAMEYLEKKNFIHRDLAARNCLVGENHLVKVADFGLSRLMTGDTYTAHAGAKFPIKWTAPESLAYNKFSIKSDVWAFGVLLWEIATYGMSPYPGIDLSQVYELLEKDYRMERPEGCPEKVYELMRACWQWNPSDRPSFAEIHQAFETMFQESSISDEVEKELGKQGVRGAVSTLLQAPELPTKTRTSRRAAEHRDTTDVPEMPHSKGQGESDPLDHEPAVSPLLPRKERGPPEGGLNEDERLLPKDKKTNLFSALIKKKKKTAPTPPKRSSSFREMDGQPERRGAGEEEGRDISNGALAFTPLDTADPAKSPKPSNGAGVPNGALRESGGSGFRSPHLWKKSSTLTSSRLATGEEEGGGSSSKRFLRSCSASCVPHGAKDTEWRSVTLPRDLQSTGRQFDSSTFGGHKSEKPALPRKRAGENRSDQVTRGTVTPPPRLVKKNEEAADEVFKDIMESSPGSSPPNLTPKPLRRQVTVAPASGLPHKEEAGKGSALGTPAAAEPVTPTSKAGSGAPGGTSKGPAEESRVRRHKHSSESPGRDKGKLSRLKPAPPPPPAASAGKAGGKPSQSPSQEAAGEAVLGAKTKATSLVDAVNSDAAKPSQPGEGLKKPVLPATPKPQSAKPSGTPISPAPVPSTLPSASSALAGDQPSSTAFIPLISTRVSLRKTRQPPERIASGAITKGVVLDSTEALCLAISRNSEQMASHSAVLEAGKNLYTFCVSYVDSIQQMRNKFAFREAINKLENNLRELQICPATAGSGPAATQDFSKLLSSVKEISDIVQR
Chain of ABL2 (P42684 whole entry): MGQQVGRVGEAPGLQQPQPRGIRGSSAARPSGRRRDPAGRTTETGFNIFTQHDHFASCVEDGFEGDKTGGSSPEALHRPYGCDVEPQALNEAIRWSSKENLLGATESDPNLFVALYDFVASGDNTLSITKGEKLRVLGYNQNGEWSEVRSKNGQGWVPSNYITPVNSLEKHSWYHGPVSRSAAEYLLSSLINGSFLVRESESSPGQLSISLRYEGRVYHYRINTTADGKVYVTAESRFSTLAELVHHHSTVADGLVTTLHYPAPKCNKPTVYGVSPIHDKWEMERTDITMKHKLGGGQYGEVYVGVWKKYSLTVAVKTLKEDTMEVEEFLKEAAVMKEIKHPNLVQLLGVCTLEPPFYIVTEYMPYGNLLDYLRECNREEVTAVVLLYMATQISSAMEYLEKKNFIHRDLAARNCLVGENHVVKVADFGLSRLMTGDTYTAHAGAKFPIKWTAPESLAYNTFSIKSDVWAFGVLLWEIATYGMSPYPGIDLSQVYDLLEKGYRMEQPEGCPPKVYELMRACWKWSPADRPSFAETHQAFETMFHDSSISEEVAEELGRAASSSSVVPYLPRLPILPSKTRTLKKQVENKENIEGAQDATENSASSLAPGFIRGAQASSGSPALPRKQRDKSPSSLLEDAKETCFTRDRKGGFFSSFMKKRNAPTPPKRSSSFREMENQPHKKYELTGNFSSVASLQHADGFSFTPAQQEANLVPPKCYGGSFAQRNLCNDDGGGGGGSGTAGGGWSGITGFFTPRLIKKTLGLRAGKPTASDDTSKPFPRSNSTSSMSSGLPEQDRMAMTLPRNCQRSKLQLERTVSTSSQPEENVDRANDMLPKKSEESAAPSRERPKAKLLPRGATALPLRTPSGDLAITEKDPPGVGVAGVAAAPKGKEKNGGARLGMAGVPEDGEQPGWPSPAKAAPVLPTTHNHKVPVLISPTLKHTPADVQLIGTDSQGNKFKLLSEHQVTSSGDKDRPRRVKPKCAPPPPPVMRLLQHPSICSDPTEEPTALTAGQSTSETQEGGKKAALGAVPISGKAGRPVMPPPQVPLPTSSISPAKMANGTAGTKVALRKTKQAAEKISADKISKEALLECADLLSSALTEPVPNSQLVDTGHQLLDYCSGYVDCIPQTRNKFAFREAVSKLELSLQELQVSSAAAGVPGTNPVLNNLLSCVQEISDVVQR

For the compound `COc1ccc2c(C(=O)Nc3ccc(NC(=O)c4nn(C5CCN(C(=O)CC(C)(C)C#N)CC5)c5ccc(F)cc45)cc3Cl)cnn2c1` [SI-3], the equilibrium dissociation constant (Kd) in assay [1] amounted to 353 nM; in assay [2] it was 40.2 nM; in assay [3], 3080 nM; in assay [4] it was 9700 nM.
